According to US20230398130A1, “METHODS AND COMPOSITIONS FOR DIFFERENTIATING STEM CELLS” (Massachusetts Institute of Technology, priority 2020, published 2023):

Experiments:
[1] = tested on: ISC-enriched organoids; assay: Primary screen, 384-well 2.5-D organoid differentiation (ENR+CD, 6 days, Target Selective Inhibitor Library, vs whole-plate median): ATP (CellTiter-Glo 3D, CTG); conditions: for Dose.FC.CTG / Z.CTG: primary screen; for Dose.FC.CTG: ENR+CD 6 days, FC vs plate median; for Z.CTG: standard z score of FC
[2] = tested on: ISC-enriched organoids; assay: Primary screen, 384-well 2.5-D organoid differentiation (ENR+CD, 6 days): basal lysozyme secretion (LYZ.NS); type: cell-based, murine; conditions: for Dose.FC.LYZ.NS / Z.LYZ.NS: primary screen; for Dose.FC.LYZ.NS: ENR+CD 6 days, FC vs plate median; for Z.LYZ.NS: standard z score of FC
Excerpt: (§1) High-throughput screening.

[3] = tested on: ISC-enriched organoids; assay: Primary screen, 384-well 2.5-D organoid differentiation (ENR+CD, 6 days): carbachol-induced lysozyme secretion (LYZ.S); type: cell-based, murine; conditions: for Dose.FC.LYZ.S: primary screen, ENR+CD 6 days, FC vs plate median
Excerpt: as §1

[4] = dose 0.08 uM (1st of 4 lines per treatment; dose not printed in this part)
[5] = dose 0.40 uM (2nd of 4 lines per treatment; dose not printed in this part)
[6] = dose 2.00 uM (3rd of 4 lines per treatment; dose not printed in this part)
[7] = dose 10.00 uM (4th of 4 lines per treatment; dose not printed in this part)

Row | Compound | Dose.FC.CTG ([1]; dose 0.08 uM) [log 2 fold change] | Z.CTG ([1]; dose 0.08 uM) | Dose.FC.CTG ([1]; dose 0.40 uM) [log 2 fold change] | Z.CTG ([1]; dose 0.40 uM) | Dose.FC.CTG ([1]; dose 2.00 uM) [log 2 fold change] | Z.CTG ([1]; dose 2.00 uM) | Dose.FC.CTG ([1]; dose 10.00 uM) [log 2 fold change] | Z.CTG ([1]; dose 10.00 uM) | Dose.FC.LYZ.NS ([2]; dose 0.08 uM) [log 2 fold change] | Z.LYZ.NS ([2]; dose 0.08 uM) | Dose.FC.LYZ.NS ([2]; dose 0.40 uM) [log 2 fold change] | Z.LYZ.NS ([2]; dose 0.40 uM) | Dose.FC.LYZ.NS ([2]; dose 2.00 uM) [log 2 fold change] | Z.LYZ.NS ([2]; dose 2.00 uM) | Dose.FC.LYZ.NS ([2]; dose 10.00 uM) [log 2 fold change] | Z.LYZ.NS ([2]; dose 10.00 uM) | Dose.FC.LYZ.S ([3]; dose 0.08 uM) [log 2 fold change] | Dose.FC.LYZ.S ([3]; dose 0.40 uM) [log 2 fold change] | Dose.FC.LYZ.S ([3]; dose 2.00 uM) [log 2 fold change] | Dose.FC.LYZ.S ([3]; dose 10.00 uM) [log 2 fold change] | other results
1 | CC1(C)CCC(CN2CCN(c3ccc(C(=O)NS(=O)(=O)c4ccc(NCC5CCOCC5)c([N+](=O)[O-])c4)c(Oc4cnc5[nH]ccc5c4)c3)CC2)=C(c2ccc(Cl)cc2)C1 [ABT-199 (GDC-0199)] | 0.019 | 0.045 | 0.038 | 0.090 | −0.278 | −0.665 | −0.519 | −1.240 | −0.002 | −0.013 | −0.029 | −0.251 | −0.016 | −0.136 | −0.169 | −1.471 | −0.044 | 0.076 | −0.063 | −0.292 | SSMD.CTG_Rep (strictly standardized mean difference) [1, 4]: 0.051; SSMD.CTG_Rep (strictly standardized mean difference) [1, 5]: 0.111; SSMD.CTG_Rep (strictly standardized mean difference) [1, 6]: −0.377; SSMD.CTG_Rep (strictly standardized mean difference) [1, 7]: −1.402; SSMD.LYZ.NS_Rep (strictly standardized mean difference) [2, 4]: −0.009; SSMD.LYZ.NS_Rep (strictly standardized mean difference) [2, 5]: −0.192; SSMD.LYZ.NS_Rep (strictly standardized mean difference) [2, 6]: −0.116; SSMD.LYZ.NS_Rep (strictly standardized mean difference) [2, 7]: −0.810; SSMD.LYZ.S_Rep (strictly standardized mean difference) [3, 4]: −0.260; Z.LYZ.S (standard z score) [3, 4]: −0.285; SSMD.LYZ.S_Rep (strictly standardized mean difference) [3, 5]: 0.443; Z.LYZ.S (standard z score) [3, 5]: 0.494; SSMD.LYZ.S_Rep (strictly standardized mean difference) [3, 6]: −0.368; Z.LYZ.S (standard z score) [3, 6]: −0.404; SSMD.LYZ.S_Rep (strictly standardized mean difference) [3, 7]: −1.131; Z.LYZ.S (standard z score) [3, 7]: −1.890
2 | CC1(C)CCC(c2ccc(Cl)cc2)=C(CN2CCN(c3ccc(C(=O)NS(=O)(=O)c4ccc(N[C@H](CCN5CCOCC5)CSc5ccccc5)c(S(=O)(=O)C(F)(F)F)c4)cc3)CC2)C1 [ABT-263 (Navitoclax)] | −0.212 | −0.507 | −0.264 | −0.631 | −0.368 | −0.878 | −0.962 | −2.298 | 0.012 | 0.104 | 0.007 | 0.062 | −0.143 | −1.248 | −0.259 | −2.259 | −0.010 | −0.020 | −0.205 | −0.400 | SSMD.CTG_Rep (strictly standardized mean difference) [1, 4]: −0.462; SSMD.CTG_Rep (strictly standardized mean difference) [1, 5]: −0.777; SSMD.LYZ.NS_Rep (strictly standardized mean difference) [2, 4]: 0.062; SSMD.LYZ.NS_Rep (strictly standardized mean difference) [2, 5]: 0.062; SSMD.LYZ.S_Rep (strictly standardized mean difference) [3, 4]: −0.041; Z.LYZ.S (standard z score) [3, 4]: −0.064; SSMD.LYZ.S_Rep (strictly standardized mean difference) [3, 5]: −0.134; Z.LYZ.S (standard z score) [3, 5]: −0.129
3 | O=C(c1ccc(F)cc1)N1CCC[C@H](c2nc(-c3ccc(F)cc3)no2)C1 [ADX-47273] | 0.115 | 0.274 | −0.034 | −0.082 | −0.210 | −0.501 | −0.039 | −0.094 | 0.269 | 2.346 | 0.053 | 0.457 | −0.033 | −0.286 | −0.036 | −0.311 | 0.147 | 0.147 | −0.039 | −0.070 | –
